Where “and” joins values, the source holds several entries; their conditions need not be identical. Equal values may be shown once.
Tested on: CMV
Assay: Study HDP-CDV-201: prevention or control of CMV infection in R+ HSCT recipients (efficacy)
Type: in vivo, human (adult allogeneic HSCT recipients)
Conditions: for Difference (HDP-CDV minus placebo) in rate of CMV DNAemia ≧1,000 copies/mL / Rate of CMV DNAemia ≧1,000 copies/mL during the treatment period: CMV modified strata: positive; for Discontinuation: Emergence of CMV disease / Discontinuation: Initiation of alternate CMV therapy: active treatment period
Procedure: The clinical study of the current invention (HDP-CDV-201) was a 9-11 week randomized, placebo-controlled, double-blind, dose-escalation study (40 mg weekly [QW], 100 mg QW, 200 mg QW, 200 mg twice-weekly [BIW], and 100 mg BIW) of HDP-CDV for the prevention of CMV infection post-HCT. Treatment was initiated at the time of engraftment and continued until Week 13 post-HCT. HDP-CDV, at various doses, was active and well tolerated in the prevention CMV infection or disease.
Clinical Studies of HDP-CDV were performed and described in detail in the following Examples. For example, HDP-CDV-201 is a placebo-controlled, dose-escalating trial in HSCT CMV (R+) recipients, evaluating the ability of HDP-CDV to prevent or control CMV infection was carried out. Five cohorts were established in which participants or subjects received either placebo or the HDP-CDV orally, in doses ranging from 40 mg weekly (QW) to 200 mg twice weekly (BIW). Subjects who were post-HSCT were enrolled at the time of engraftment and randomized to HDP-CDV or placebo (3 to 1 ratio) and received blinded therapy until approximately 100 day post-transplantation. HDP-CDV doses were 40 mg QW, 100 mg QW, 200 mg QW, 200 mg BIW and 100 mg BIW. Escalation to the next dose was decided by the data monitoring committee after review of the safety data from the previous Cohort. Subjects who developed CMV disease or CMV infection requiring pre-emptive therapy with local standard of care were discontinued from blinded therapy and followed for 4 weeks. Subjects who completed treatment with blinded therapy were followed for 8 weeks post-therapy.
The primary endpoint was defined as the incidence of CMV disease at any time during treatment or CMV DNAemia≧200 copies/mL at the end of treatment. All subjects who received at least one dose of drug/placebo and had at least one efficacy evaluation post baseline were included in the primary analysis, regardless of their CMV DNAemia status (negative or positive) at baseline (mITT population). Results for the pooled HDP-CDV Cohorts and for each Cohort separately were analyzed versus that for pooled placebo.
The primary efficacy measure for this study was treatment failure, defined as the occurrence of CMV infection, defined as CMV DNAemia>200 copies/mL at the End of Treatment or diagnosis of CMV disease at any time during the treatment period. For the analysis, the following definitions apply:
For subjects who completed the treatment phase of the study, the End of Treatment was defined as the latest assessment from date of the last dose of study drug and up to 7 days for QW dosing, or the date of the last dose of study drug and up to 4 days for BIW dosing. For subjects who discontinued during the treatment phase of the study, the End of Treatment was defined as the date of the last dose of study drug.
The time to event was defined as the period between FDD and date of first occurrence of the event of interest (inclusive). The events included onset of CMV DNAemia, onset of CMV disease, and discontinuation because of excluded anti-CMV medications. Time to event/onset was derived as (the event/onset date—FDD)+1.
As detailed in the Statistical Analysis Plan, a modified CMV stratum was defined prior to conducting the statistical analysis based upon polymerase chain reaction (PCR) results from the central laboratory. If any positive CMV DNA value in plasma was collected before the first dose of study drug (including Screening, Pre-dose, (combined Screening/Pre-dose), CMV for stratification, and FDD), then the subject was placed into the modified CMV positive (≧100 copies/mL) stratum, otherwise the subject was in the modified CMV negative stratum. […]

[1] = 40 mg QW, CMV modified strata: negative
[2] = 40 mg QW, modified CMV negative stratum
[3] = 40 mg QW, treatment period, CMV DNA negative at baseline
[4] = 40 mg QW, whole study period, CMV DNA negative at baseline
[5] = 100 mg BIW, CMV modified strata: negative

SMILES: CCCCCCCCCCCCCCCCOCCCOP(=O)(O)COC(CO)Cn1ccc(N)nc1=O (stereo not drawn) [HDP-CDV]
- anti-CMV activity (in words) (40 mg QW): inactive
- Difference (HDP-CDV minus placebo) in infection rate [1]: 9.1%
- Difference (HDP-CDV minus placebo) in rate of CMV DNAemia ≧1,000 copies/ml [1]: −9.7%
- Rate of CMV DNAemia ≧1,000 copies/ml during the treatment period [1]: 22.2%
- Rate of CMV Disease or End of Treatment CMV Infection [1]: 38.9%
- Difference (HDP-CDV minus placebo) in rate of CMV DNAemia ≧1,000 copies/mL (40 mg QW): 2.4%
- Rate of CMV DNAemia ≧1,000 copies/mL during the treatment period (40 mg QW): 85.7%
- Rate of CMV Disease or End of Treatment CMV Infection (40 mg QW, aGVHD randomization strata: negative): 52.2%
- Difference (HDP-CDV minus placebo) in infection rate (40 mg QW, aGVHD strata: negative): 20.1%
- Discontinuation: Emergence of CMV disease (40 mg QW): 3 Subject n (%) and 3 (12.0%) Subject n (%)
- Discontinuation: Initiation of alternate CMV therapy (40 mg QW): 8 (32.0%) Subject n (%)
- Difference (HDP-CDV minus placebo) in rate of CMV DNAemia ≧1000 copies/mL (40 mg QW, mITT): −2.4%
- Difference (HDP-CDV minus placebo) in rate of CMV disease or end of treatment CMV infection (40 mg QW, mITT): 14.7%
- Subjects Receiving Antiviral Therapy and/or had CMV disease (40 mg QW, mITT): 11 (44.0%) subjects (%)
- Subjects without a CMV event (40 mg QW, mITT): 14 (56.0%) subjects (%)
- Time to Antiviral Therapy, Median (40 mg QW, mITT): 29.0 days
- Rate of CMV Disease or End of Treatment CMV Infection (≧200 copies/ml) (40 mg QW, mITT, missing=infection): 52%
- Rate of CMV DNAemia ≧1000 copies/mL during the treatment period (40 mg QW, mITT, post hoc): 40.0%
- Time to Antiviral Therapy, Mean (40 mg QW, mITT, censored values not included): 27.1 days
- Subjects Who Had CMV-related Event (CMV disease, CMV DNAemia ≧1,000 c/mL or initiation of anti-CMV treatment) [2]: 5 (27.8%) subjects (%)
- Subjects without a CMV-related event [2]: 13 (72.2%) subjects (%)
- Developed CMV DNAemia (≧100 copies/mL) during the treatment period (40 mg QW, plasma CMV DNA negative at baseline, mITT): 10 (52.6%) N(%)
- Median Survival Time to CMV DNAemia (Kaplan-Meier) [3]: 51.0 days
- Time to CMV DNAemia (≧100 copies/mL), Median [3]: 14.5 days
- Time to CMV DNAemia (≧100 copies/mL), Mean (40 mg QW, treatment period, CMV DNA negative at baseline, censored values not included): 17.8 days
- Median Survival Time to CMV DNAemia (Kaplan-Meier) (40 mg QW, whole study period): 51.0 days
- Number of Subjects who had CMV DNAemia (≧100 copies/mL) by the end of study [4]: 11
- Time to CMV DNAemia (≧100 copies/mL), Mean [4]: 24.5 days
- Time to CMV DNAemia (≧100 copies/mL), Median [4]: 15.0 days
- % CMV Event Rate, primary: CMV DNAemia >200 copies/mL at end of treatment OR CMV disease during treatment (100 mg BIW (N = 41), CMV modified strata: negative): 2 (4.9%) subjects (%)
- % CMV Event Rate, primary: CMV DNAemia >200 copies/mL at end of treatment OR CMV disease during treatment (100 mg BIW (N = 46), aGVHD strata: negative): 4 (8.7%) subjects (%)
- % CMV Event Rate, primary: CMV DNAemia >200 copies/mL at end of treatment OR CMV disease during treatment (100 mg BIW (N = 50), mITT): 5 (10.0)%
- CMV events (disease at any time or >200 copies at end of treatment) (100 mg BIW, CMV modified positive stratum (3 of 9)): 33%
- Difference (HDP-CDV minus placebo) in infection rate [5]: −24.9%
- Difference (HDP-CDV minus placebo) in rate of CMV DNAemia ≧1,000 copies/ml [5]: −31.9%
- Rate of CMV DNAemia ≧1,000 copies/ml during the treatment period [5]: 0%
- Rate of CMV Disease or End of Treatment CMV Infection [5]: 4.9% and 5%
- Difference (HDP-CDV minus placebo) in rate of CMV DNAemia ≧1,000 copies/mL (100 mg BIW): −38.9%
- Rate of CMV DNAemia ≧1,000 copies/mL during the treatment period (100 mg BIW): 44.4%
- Rate of CMV Disease or End of Treatment CMV Infection (100 mg BIW, aGVHD randomization strata: negative): 9% and 8.7%
- Difference (HDP-CDV minus placebo) in infection rate (100 mg BIW, aGVHD strata: negative): −23.4%
- Discontinuation: Emergence of CMV disease (100 mg BIW): 1 Subject n (%) and 1 (2.0%) Subject n (%)
- Discontinuation: Initiation of alternate CMV therapy (100 mg BIW): 6 (12.0%) Subject n (%)
- Difference (HDP-CDV minus placebo) in rate of CMV DNAemia ≧1000 copies/mL (100 mg BIW, mITT): −34.4%
- Difference (HDP-CDV minus placebo) in rate of CMV disease or end of treatment CMV infection (100 mg BIW, mITT): −27.3%
